Experimental findings from patent US9193731B2, “Antimicrobial compounds and methods of making and using the same” (Melinta Therapeutics, Inc., priority 2009, dated 2015) are described below.

What is called MIC is the lowest concentration that inhibits growth of the organism.

The assay concerns Escherichia coli strain ATCC25922. Description: standard microdilution assay to determine minimum inhibitory concentrations (MICs). In kind it is cell-based. The settings on record: for E. coli ATCC25922 MIC: Escherichia coli strain ATCC25922, microdilution; for MIC: Escherichia coli, ATCC25922, Escherichia coli strain ATCC25922, microdilution, read-out: E. coli ATCC25922 MIC. In a few lines:
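Broth microdilution MIC against E. coli ATCC25922, following CLSI protocols, typically in a 100 microliter final volume. Results reported as +/− relative to a 16 micrograms/ml cutoff.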

For `CNCc1ccc(-n2cc3cc(-c4ccc(S(=O)(=O)N(Cc5ccc6nonc6c5)C5CCNCC5)cc4)[nH]c3nc2=O)cc1` [Compound 962], the “E. coli ATCC25922 MIC” value is given as “− (a “−” indicates that the compound has an MIC value greater than 16 micrograms/ml)”. Same read-out and setting: for `COc1ccc(NCCCS(=O)(=O)c2ccc(-c3cc4cn(-c5ccc(CNCCCN=C(N)N)cc5)c(=O)nc4[nH]3)cc2)cc1` [Compound 1250] the value was “− (a “−” indicates that the compound has an MIC value greater than 16 micrograms/ml)”.

In the case of `CN(C)CCCOc1cccc(-c2cc3cn(-c4ccc(CNCCCNC(=N)N)cc4)c(=O)nc3[nH]2)c1` [Compound 1181], the MIC is less than 16 µg/mL.

As to `N=C(N)NCCCN(CCCN)Cc1ccc(-c2cn3cc(-c4ccc(Br)cc4)[nH]c3nc2=O)cc1` [Compound 640], the MIC was less than 16 µg/mL. Still for that read-out and setting: to `O=C1CC[C@@H](COc2cccc(-n3cc4cc(-c5ccc(S(=O)(=O)NC6CCNCC6)cc5)[nH]c4nc3=O)c2)N1` [Compound 1223] belongs greater than 16 µg/mL.

Turning to `N=C(N)NCCCNCc1ccc(-n2cc3cc(-c4ccc(S(=O)(=O)N(CCCc5c[nH]nc5C(F)(F)F)C5CCNCC5)cc4)[nH]c3nc2=O)cc1` [Compound 897], the “E. coli ATCC25922 MIC” value is given as “+ (a “+” indicates that the compound has an MIC value of 16 micrograms/ml or less)”. The same measure, in the same setting: to `N=C(N)NCC(O)CNCc1ccc(-n2cc3cc(-c4ccc(S(=O)(=O)NC5CN(C(=N)N)C5)cc4)[nH]c3nc2=O)cc1` (stereo not drawn) [Compound 1417] belongs “+ (a “+” indicates that the compound has an MIC value of 16 micrograms/ml or less)”.

Regarding `NCc1ccc(-n2cc3cc(-c4cccc(OC[C@H](F)CN)c4)[nH]c3nc2=O)cc1` [Compound 1443], the MIC was greater than 16 µg/mL. With `Nc1nccc(CCCNCc2ccc(-n3cc4cc(-c5ccc(S(=O)(=O)NC6CCNCC6)cc5)[nH]c4nc3=O)cc2)n1` [Compound 1132], the “E. coli ATCC25922 MIC” value is listed as “− (a “−” indicates that the compound has an MIC value greater than 16 micrograms/ml)”.

Turning to `N=C(N)NCCCNCc1ccc(-n2cc3cc(C4CCCN(CCNC(N)=O)C4)[nH]c3nc2=O)cc1` (stereo not drawn) [Compound 2019a], the MIC was less than 16 µg/mL. Same read-out and setting: to `COc1ccc(CCN(C2CCNCC2)S(=O)(=O)c2cccc(-c3cc4cn(-c5ccc(CN)cc5)c(=O)nc4[nH]3)c2)cc1` [Compound 1215] belongs greater than 16 µg/mL. Consider `CN(C)Cc1ccc(-n2cc3cc(-c4ccc(S(=O)(=O)N(CCCN5CCCCC5)C5CCNCC5)cc4)[nH]c3nc2=O)cc1` [Compound 987], for which the “E. coli ATCC25922 MIC” value was “− (a “−” indicates that the compound has an MIC value greater than 16 micrograms/ml)”. As for `N=C(N)NCCCNC(=O)c1ccc(-n2cc3cc(-c4ccc(C[C@H](N)CO)cc4)[nH]c3nc2=O)cc1` [Compound 1164], the MIC was less than 16 µg/mL. Still for that read-out and setting: to `NCCCNCc1ccc(-n2cc3cc(C4=CCCCC4)[nH]c3nc2=O)cc1` [Compound 623] belongs greater than 16 µg/mL. As to `N=C(N)NCCCNCc1ccc(-n2cc3cc(-c4cc(CCN)cc(OCC(F)CN)c4)[nH]c3nc2=O)cc1` (stereo not drawn) [Compound 2011a], the “E. coli ATCC25922 MIC” value was “+ (a “+” indicates that the compound has an MIC value of 16 micrograms/ml or less)”. On to `NOCCNC(=O)c1ccc(-n2cc3cc(-c4ccc(S(=O)(=O)NC5CCNCC5)cc4)[nH]c3nc2=O)cc1` [Compound 1136], for which the MIC is greater than 16 µg/mL. `N=C(N)NCCCNCc1ccc(-n2cc3cc(-c4cccc(S(=O)(=O)N(CCn5nccc5N)C5CCNCC5)c4)[nH]c3nc2=O)cc1` [Compound 1262]: the “E. coli ATCC25922 MIC” value is listed as “− (a “−” indicates that the compound has an MIC value greater than 16 micrograms/ml)”. Still for that read-out and setting: to `CN(Cc1cccc(F)c1)Cc1cc(-c2cc3cn(-c4ccc(CNCCCNC(=N)N)cc4)c(=O)nc3[nH]2)cc(N2CCNCC2)c1` [Compound 1049] belongs “+ (a “+” indicates that the compound has an MIC value of 16 micrograms/ml or less)”. Regarding `NCCCN(CCCN)Cc1ccc(-n2cc3cc(-c4ccc(C(=O)Nc5cccnc5)cc4)[nH]c3nc2=O)cc1` [Compound 195], the minimal inhibitory concentration (MIC) was greater than 16 µg/mL. Turning to `N=C(N)NCCCNCc1ccc(-n2cc3cc(-c4cccc(OCCC5(N)CCCC5)c4)[nH]c3nc2=O)cc1` [Compound 1447], the “E. coli ATCC25922 MIC” value is “+ (a “+” indicates that the compound has an MIC value of 16 micrograms/ml or less)”. Same read-out and setting: to `CNCc1ccc(-n2cc3cc(-c4ccc(S(=O)(=O)N(CCCc5cn[nH]c5)C5CCNCC5)cc4)[nH]c3nc2=O)cc1` [Compound 1351] belongs “− (a “−” indicates that the compound has an MIC value greater than 16 micrograms/ml)”. Turning to `NCCCNCc1ccc(-c2cn3nc(-c4ccc(F)cc4)[nH]c3nc2=O)cc1` [Compound 662], the minimum inhibitory concentration (MIC) is greater than 16 µg/mL. For `NCCCNCc1ccc(-n2cc3cc(CN4CCS(=O)(=O)CC4)[nH]c3nc2=O)cc1` [Compound 613], the MIC was greater than 16 µg/mL. On the same count and under the same terms, for `NCCCCCN1CCN(c2cn3cc(-c4ccc(Br)cc4)[nH]c3nc2=O)CC1` [Compound 883] the value was greater than 16 µg/mL.

Turning to `CCOCCn1cc(CCNO)c2ccc(-n3cc4cc(CCS(=O)(=O)NC5CCNCC5)[nH]c4nc3=O)cc21` [Compound 1209], the MIC was greater than 16 µg/mL. Still for that read-out and setting: to `N=C(N)NCCCNCc1ccc(-n2cc3cc(-c4cccc(OCCCN5CCNCC5)c4)[nH]c3nc2=O)cc1` [Compound 1162] belongs less than 16 µg/mL. Turning to `CC(=O)NCCN(C1CCNCC1)S(=O)(=O)c1cccc(-c2cc3cn(-c4ccc(CNCCCN=C(N)N)cc4)c(=O)nc3[nH]2)c1` [Compound 1243], the “E. coli ATCC25922 MIC” value is “+ (a “+” indicates that the compound has an MIC value of 16 micrograms/ml or less)”.

In the case of `N=C(N)NCCCNCc1ccc(-n2cc3cc(-c4cc(F)cc(CCCCN)c4)[nH]c3nc2=O)cc1` [Compound 2085a], the “E. coli ATCC25922 MIC” value is “+ (a “+” indicates that the compound has an MIC value of 16 micrograms/ml or less)”. For the compound `N=C(N)NCCCNCc1ccc(-c2cn3cc(-c4ccc(C(=O)N5CCC(O)C5)cc4)[nH]c3nc2=O)cc1` (stereo not drawn) [Compound 653], the MIC is greater than 16 µg/mL. In the case of `N=C(N)NCCCNCc1ccc(-n2cc3cc(-c4cc(OCC(F)CN)cc(OC(F)(F)F)c4)[nH]c3nc2=O)cc1` (stereo not drawn) [Compound 1463], the “E. coli ATCC25922 MIC” value is on record as “+ (a “+” indicates that the compound has an MIC value of 16 micrograms/ml or less)”. For the compound `N=C(N)NCCCNCc1ccc(-n2cc3cc(-c4cc(CN)cc(CCCCN)c4)[nH]c3nc2=O)cc1` [Compound 2064a], the “E. coli ATCC25922 MIC” value was “+ (a “+” indicates that the compound has an MIC value of 16 micrograms/ml or less)”. With `NCCCN(CCCN)Cc1ccc(-n2cc3cc(-c4ccc(C(=O)NC5CN6CCC5CC6)cc4)[nH]c3nc2=O)cc1` (stereo not drawn) [Compound 196], the minimum inhibitory concentration (MIC) was less than 16 µg/mL. Take `CC(=O)NCCCS(=O)(=O)c1ccc(-c2cc3cn(-c4ccc(CNCCCNC(=N)N)cc4)c(=O)nc3[nH]2)cc1` [Compound 1277]: the “E. coli ATCC25922 MIC” value was “− (a “−” indicates that the compound has an MIC value greater than 16 micrograms/ml)”.

Regarding `NCCCCOc1ccc(-c2cn3cc(-c4ccc(S(=O)(=O)N5CCNCC5)cc4)[nH]c3nc2=O)cc1` [Compound 809], the “E. coli ATCC25922 MIC” value was “− (a “−” indicates that the compound has an MIC value greater than 16 micrograms/ml)”. The same measure, in the same setting: to `N=C(N)NCCCNCc1ccc(-n2cc3cc(-c4cc(C(=O)Nc5cccc(C(F)(F)F)c5)cc(N5CCNCC5)c4)[nH]c3nc2=O)cc1` [Compound 1069] belongs “+ (a “+” indicates that the compound has an MIC value of 16 micrograms/ml or less)”. `NCCCNCc1ccc(-n2cc3cc(CCN[C@@H]4CCCNC4)[nH]c3nc2=O)cc1` [Compound 814]: the MIC was less than 16 µg/mL.
